As a reminder, the Inhibition is the share of the control response that was lost under treatment.

Where a SMILES comes first, the peptide text is derived from it. The star is where a group is joined. X1 = CC1(C)N(O)C(c2ccc(OCC(=O)*)cc2)=[N+]([O-])C1(C)C

The values below come from ChEMBL document CHEMBL1136439, “Synthesis and bioactivities of nitronyl nitroxide and RGD containing pseudopeptides” (2003).

The species entered for assay [1] is Oryctolagus cuniculus. Description: Maximum rate of ADP induced platelet aggregation was determined in rabbit blood at a dose of 10-5 mol/L (in vitro). It is filed as functional.
Assay [2] is filed under the species Oryctolagus cuniculus. Put plainly: Maximum rate of ADP induced platelet aggregation was determined in rabbit blood at a dose of 10-6 mol/L (in vitro). The format is functional.
Assay [3] is filed under the species Oryctolagus cuniculus. Description: Maximum rate of ADP induced platelet aggregation was determined in rabbit blood at a dose of 10-7 mol/L (in vitro). It is filed as functional.
Assay [4] is filed under the species Oryctolagus cuniculus. Description: Maximum rate of PAF induced platelet aggregation was determined in rabbit blood at a dose of 10-5 mol/L (in vitro). It is filed as functional.
The species named for assay [5] is Oryctolagus cuniculus. Put plainly: Maximum rate of PAF induced platelet aggregation was determined in rabbit blood at a dose of 10-6 mol/L (in vitro). The format is functional.
For assay [6], the species on record is Oryctolagus cuniculus. Put plainly: Maximum rate of PAF induced platelet aggregation was determined in rabbit blood at a dose of 10-7 mol/L (in vitro). The format is functional.
The test system of assay [7] is Rattus norvegicus. Put plainly: Effect on the dry thrombus weight in male wistar rat was determined(in vivo). The format is functional.
In assay [8] the test system is Rattus norvegicus. Put plainly: Effect on the wet thrombus weight in male wistar rat was determined(in vivo). It is filed as functional. Also on record: unit not given beside the values.
For assay [9], the species on record is Rattus norvegicus. Put plainly: Compound tested for inhibition of Ach-induced vasorelaxation was determined in rat aortic strips. It is filed as functional, Aorta. Also on record: concentration or dose not given beside the values.

Take `CC1(C)N(O)C(c2ccc(OCC(=O)O)cc2)=[N+]([O-])C1(C)C`: the Am in the assay listed under Oryctolagus cuniculus [1] was found to be 51.6%; in the assay listed under Oryctolagus cuniculus [2], 51.96%; in the assay listed under Oryctolagus cuniculus [3], 54.68%; in the assay listed under Oryctolagus cuniculus [4] it was 52.92%; in the assay filed under Oryctolagus cuniculus [5], 52.98%; in the assay filed under Oryctolagus cuniculus [6], 54.25%. Besides, the Activity with Rattus norvegicus [7] stood at 6.17; in the assay with Rattus norvegicus [8], 38.1. For the same compound, the Inhibition in the assay filed under Rattus norvegicus [9] was 99.2%.
As to `N=C(N)NCCC[C@H](N)C(=O)NCC(=O)N[C@@H](CC(=O)O)C(=O)N[C@@H](CO)C(=O)O`, the Am in the assay filed under Oryctolagus cuniculus [1] is on record as 17.02%; in the assay listed under Oryctolagus cuniculus [2], 40.14%; in the assay filed under Oryctolagus cuniculus [3] it was 53.55%; in the assay listed under Oryctolagus cuniculus [4], 22.66%; in the assay listed under Oryctolagus cuniculus [5] it was 37.1%; in the assay listed under Oryctolagus cuniculus [6], 54.21%. Besides, the Activity in the assay on Rattus norvegicus [7] is 6.68; with Rattus norvegicus [8] it was 36.96. Besides, the Inhibition in the assay filed under Rattus norvegicus [9] came out at 3.2%.
Take `N=C(N)NCCC[C@H](N)C(=O)NCC(=O)N[C@@H](CC(=O)O)C(=O)N[C@@H](Cc1ccccc1)C(=O)O` (H-RGDF-OH): the Am in the assay filed under Oryctolagus cuniculus [1] turned out to be 10.13%; in the assay filed under Oryctolagus cuniculus [2] it was 24.15%; in the assay filed under Oryctolagus cuniculus [3] it was 33.76%; in the assay listed under Oryctolagus cuniculus [4] it was 10.22%; in the assay filed under Oryctolagus cuniculus [5] it was 25.18%; in the assay listed under Oryctolagus cuniculus [6], 51.88%. Further, the Activity with Rattus norvegicus [7] came out at 3.94; in the assay on Rattus norvegicus [8] it was 25.61. In addition, the Inhibition in the assay listed under Rattus norvegicus [9] is 2.6%.
Regarding `CC(C)[C@H](NC(=O)[C@H](CC(=O)O)NC(=O)CNC(=O)[C@@H](N)CCCNC(=N)N)C(=O)O` (H-RGDV-OH), the Am came out at 12.07% in the assay listed under Oryctolagus cuniculus [1]; 28.9% in the assay listed under Oryctolagus cuniculus [2]; 50.06% in the assay listed under Oryctolagus cuniculus [3]; 20.5% in the assay filed under Oryctolagus cuniculus [4]; 35.11% in the assay filed under Oryctolagus cuniculus [5]; 52.66% in the assay filed under Oryctolagus cuniculus [6]. The Activity in the assay on Rattus norvegicus [7] is 5.13; in the assay on Rattus norvegicus [8], 32.62. Moreover, the Inhibition in the assay listed under Rattus norvegicus [9] stood at 2.4%.
Regarding `CC1(C)N(O)C(c2ccc(OCC(=O)N[C@@H](CCCN=C(N)N)C(=O)NCC(=O)N[C@@H](CC(=O)O)C(=O)N[C@@H](Cc3ccccc3)C(=O)O)cc2)=[N+]([O-])C1(C)C` (X1-RGDF-OH), the Am worked out at 10.21% in the assay filed under Oryctolagus cuniculus [1]; 20.66% in the assay filed under Oryctolagus cuniculus [2]; 35.25% in the assay filed under Oryctolagus cuniculus [3]; 9.98% in the assay listed under Oryctolagus cuniculus [4]; 24.26% in the assay listed under Oryctolagus cuniculus [5]; 50.02% in the assay filed under Oryctolagus cuniculus [6]. The Activity was determined as 3.16 in the assay on Rattus norvegicus [7] and 24.3 in the assay with Rattus norvegicus [8]. The compound further showed an Inhibition in the assay filed under Rattus norvegicus [9] of 88.9%.
As for `CC1(C)N(O)C(c2ccc(OCC(=O)N[C@@H](CCCN=C(N)N)C(=O)NCC(=O)N[C@@H](CC(=O)O)C(=O)N[C@@H](CO)C(=O)O)cc2)=[N+]([O-])C1(C)C` (X1-RGDS-OH), the Am in the assay filed under Oryctolagus cuniculus [1] is 16.91%; in the assay listed under Oryctolagus cuniculus [2] it was 40.05%; in the assay listed under Oryctolagus cuniculus [3], 51.46%; in the assay listed under Oryctolagus cuniculus [4], 22.05%; in the assay filed under Oryctolagus cuniculus [5], 35.11%; in the assay filed under Oryctolagus cuniculus [6], 52.1%. For the same compound, the values for the Activity in the assay on Rattus norvegicus [7] and in the assay on Rattus norvegicus [8] were 5.08 and 32.09, respectively. Besides, the Inhibition in the assay filed under Rattus norvegicus [9] turned out to be 88.9%.
Regarding `CC(C)[C@H](NC(=O)[C@H](CC(=O)O)NC(=O)CNC(=O)[C@H](CCCN=C(N)N)NC(=O)COc1ccc(C2=[N+]([O-])C(C)(C)C(C)(C)N2O)cc1)C(=O)O` (X1-RGDV-OH), the Am in the assay listed under Oryctolagus cuniculus [1] is recorded as 11.85%; in the assay filed under Oryctolagus cuniculus [2] it was 24.99%; in the assay filed under Oryctolagus cuniculus [3], 49.98%; in the assay listed under Oryctolagus cuniculus [4], 20.45%; in the assay filed under Oryctolagus cuniculus [5], 33.22%; in the assay listed under Oryctolagus cuniculus [6], 50.88%. Besides, the Activity in the assay with Rattus norvegicus [7] is 4.07; in the assay on Rattus norvegicus [8], 29.49. The Inhibition in the assay filed under Rattus norvegicus [9] is recorded as 91.2%.
`CC(=O)Oc1ccccc1C(=O)O` [ASPIRIN]: the Am in the assay filed under Oryctolagus cuniculus [1] was determined as 30.01%; in the assay listed under Oryctolagus cuniculus [2] it was 42.58%; in the assay listed under Oryctolagus cuniculus [3], 54.89%; in the assay listed under Oryctolagus cuniculus [4], 29.99%; in the assay listed under Oryctolagus cuniculus [5], 36.98%; in the assay listed under Oryctolagus cuniculus [6], 53.42%. The Activity in the assay on Rattus norvegicus [7] is 3.99; with Rattus norvegicus [8], 28.11.
